From patent US11608335B2, “Somatostatin modulators and uses thereof” (CRINETICS PHARMACEUTICALS, INC., priority 2018, dated 2023)
Like-named read-outs stand apart in the source and are kept apart here.

Experiments:
[1] = biological target: human somatostatin receptor subtype 5 (Homo sapiens, UniProt P35346); assay: cAMP assay for SST5R (inhibition of cAMP via human SST5 receptor); details: for Fold selectivity for SST5 vs SST2: SST5 over SST2, class symbols
[2] = biological target: T1, human somatostatin receptor subtype 2 (Homo sapiens, UniProt P30874); assay: cAMP assay for SST2R (inhibition of cAMP via human SST2 receptor); format: cell-based; details: Table B, read-out: SST2 potency
T1 construct: expressed in transfected cells
T1 sequence (P30874 whole entry): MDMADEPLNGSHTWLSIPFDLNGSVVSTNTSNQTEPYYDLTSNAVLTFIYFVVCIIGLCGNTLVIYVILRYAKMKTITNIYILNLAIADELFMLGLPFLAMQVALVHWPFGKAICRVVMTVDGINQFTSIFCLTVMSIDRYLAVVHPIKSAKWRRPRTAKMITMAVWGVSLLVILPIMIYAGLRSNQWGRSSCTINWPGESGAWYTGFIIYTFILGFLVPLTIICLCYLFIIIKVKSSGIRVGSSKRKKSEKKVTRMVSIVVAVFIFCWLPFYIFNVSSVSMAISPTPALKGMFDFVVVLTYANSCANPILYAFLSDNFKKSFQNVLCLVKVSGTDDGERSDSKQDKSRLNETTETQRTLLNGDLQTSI
Description: cAMP Assay Protocol for SST2R:

[3] = read-out: SST5 potency, inhibition of cAMP via human SST5 receptor, Table B

human somatostatin receptor subtype 5, sequence (P35346 whole entry): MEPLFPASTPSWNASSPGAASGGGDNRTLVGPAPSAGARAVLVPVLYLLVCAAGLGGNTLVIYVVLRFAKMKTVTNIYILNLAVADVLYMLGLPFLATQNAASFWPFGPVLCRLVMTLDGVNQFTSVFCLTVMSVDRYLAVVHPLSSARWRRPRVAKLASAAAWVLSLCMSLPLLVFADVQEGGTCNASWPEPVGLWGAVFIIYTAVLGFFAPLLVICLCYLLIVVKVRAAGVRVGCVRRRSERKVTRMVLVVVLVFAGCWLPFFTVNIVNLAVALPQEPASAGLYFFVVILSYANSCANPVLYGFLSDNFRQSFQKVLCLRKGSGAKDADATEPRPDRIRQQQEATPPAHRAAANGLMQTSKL

With Cc1cc(F)cc(-c2cncc(-c3nc4cccc(C)c4[nH]3)c2N2CC(CN)C2)c1 [Compound 1-9, 1-{1-[3-(3-fluoro-5-methylphenyl)-5-(4-methyl-1H-1,3-benzodiazol-2-yl)pyridin-4-yl]azetidin-3-yl}methanamine] the EC50 [1] was under 10 nM, the “Fold selectivity for SST5 vs SST2” value [1] was “+++ (+++=≥500)” and the EC50 [1, 3] was under 10 nM. It also gave an EC50 [2] of over 1000 nM.

For Cc1cc(F)cc(-c2cncc(-c3nc4cc(C)ccc4[nH]3)c2N2CC(CN)C2)c1 [Compound 1-10, 1-{1-[3-(3-fluoro-5-methylphenyl)-5-(5-methyl-1H-1,3-benzodiazol-2-yl)pyridin-4-yl]azetidin-3-yl}methanamine], the EC50 [1] was under 10 nM, the “Fold selectivity for SST5 vs SST2” value [1] was “+++ (+++=≥500)” and the EC50 [1, 3] was under 10 nM. The EC50 [2] was over 1000 nM.

With Cc1cc(F)cc(-c2cncc(-c3nc4c(F)ccc(F)c4[nH]3)c2N2CC(CN)C2)c1 [Compound 1-37, 1-{1-[3-(4,7-difluoro-1H-1,3-benzodiazol-2-yl)-5-(3-fluoro-5-methylphenyl)pyridin-4-yl]azetidin-3-yl}methanamine] the EC50 [1] was under 10 nM, the “Fold selectivity for SST5 vs SST2” value [1] was “+++ (+++=≥500)” and the EC50 [1, 3] was under 10 nM. For the same compound, the EC50 [2] was over 1000 nM.

With NCC1CN(c2c(-c3cc(F)cc(Cl)c3)cncc2-c2nc3cc(F)cc(F)c3[nH]2)C1 [Compound 1-39, 1-{1-[3-(3-chloro-5-fluorophenyl)-5-(4,6-difluoro-1H-1,3-benzodiazol-2-yl)pyridin-4-yl]azetidin-3-yl}methanamine] the EC50 [1] was under 10 nM, the “Fold selectivity for SST5 vs SST2” value [1] was “+++ (+++=≥500)” and the EC50 [1, 3] was under 10 nM. The EC50 [2] was over 1000 nM.

With CC(N)C1(C)CN(c2c(-c3cccc(F)c3)cncc2-c2nc3cc(F)cc(F)c3[nH]2)C1 (centres unmarked) [Compound 1-68, 1-{1-[3-(4,6-difluoro-1H-1,3-benzodiazol-2-yl)-5-(3-fluorophenyl)pyridin-4-yl]-3-methylazetidin-3-yl}ethan-1-amine] the EC50 [1] was under 10 nM, the “Fold selectivity for SST5 vs SST2” value [1] was “+++ (+++=≥500)” and the EC50 [1, 3] was under 10 nM. It also gave an EC50 [2] of over 1000 nM.

With CC(N)C1(C)CN(c2c(-c3cccc(C(F)(F)F)c3)cncc2-c2nc3cc(F)cc(F)c3[nH]2)C1 (centres unmarked) [Compound 1-69, 1-{1-[3-(4,6-difluoro-1H-1,3-benzodiazol-2-yl)-5-[3-(trifluoromethyl)phenyl]pyridin-4-yl]-3-methylazetidin-3-yl}ethan-1-amine] the EC50 [1] was under 10 nM, the “Fold selectivity for SST5 vs SST2” value [1] was “+++ (+++=≥500)” and the EC50 [1, 3] was under 10 nM. It also gave an EC50 [2] of over 1000 nM.

In the case of CC(N)C1(C)CN(c2c(-c3cccc(C#N)c3)cncc2-c2nc3cc(F)cc(F)c3[nH]2)C1 (centres unmarked) [Compound 1-70, 3-{4-[3-(1-aminoethyl)-3-methylazetidin-1-yl]-5-(4,6-difluoro-1H-1,3-benzodiazol-2-yl)pyridin-3-yl}benzonitrile], the EC50 [1] is reported as under 10 nM, the “Fold selectivity for SST5 vs SST2” value [1] is reported as “+++ (+++=≥500)” and the EC50 [1, 3] is reported as under 10 nM. The EC50 [2] was over 1000 nM.

In the case of CC(N)C1CN(c2c(-c3cc(F)cc(C(F)(F)F)c3)cncc2-c2nc3cc(F)cc(F)c3[nH]2)C1 (centres unmarked) [Compound 1-71, 1-{1-[3-(4,6-difluoro-1H-1,3-benzodiazol-2-yl)-5-[3-fluoro-5-(trifluoromethyl)phenyl]pyridin-4-yl]azetidin-3-yl}ethan-1-amine], the “Fold selectivity for SST5 vs SST2” value [1] is reported as “+++ (+++=≥500)”, the EC50 [1, 3] is reported as under 10 nM and the EC50 [2] is reported as over 1000 nM.

With CC1(N)CCN(c2c(-c3cc(F)cc(Cl)c3)cncc2-c2nc3cccc(F)c3[nH]2)C1 (centres unmarked) [Compound 2-4, 1-[3-(3-chloro-5-fluorophenyl)-5-(4-fluoro-1H-1,3-benzodiazol-2-yl)pyridin-4-yl]-3-methylpyrrolidin-3-amine] the EC50 [1] was under 10 nM, the “Fold selectivity for SST5 vs SST2” value [1] was “++ (++=100 to 499)” and the EC50 [1, 3] was under 10 nM. It also gave an EC50 [2] of 10 to 100 nM.

With CC1(N)CCN(c2c(-c3cc(F)cc(C#N)c3)cncc2-c2nc3cccc(F)c3[nH]2)C1 (centres unmarked) [Compound 2-6, 3-[4-(3-amino-3-methylpyrrolidin-1-yl)-5-(4-fluoro-1H-1,3-benzodiazol-2-yl)pyridin-3-yl]-5-fluorobenzonitrile] the EC50 [1] was under 10 nM, the “Fold selectivity for SST5 vs SST2” value [1] was “+++ (+++=≥500)” and the EC50 [1, 3] was under 10 nM. For the same compound, the EC50 [2] was 100 to 1000 nM.

For N#Cc1cccc(-c2cncc(-c3nc4cccc(F)c4[nH]3)c2N2CC[C@H](N)C2)c1 [Compound 2-7, 3-{4-[(3S)-3-aminopyrrolidin-1-yl]-5-(4-fluoro-1H-1,3-benzodiazol-2-yl)pyridin-3-yl}benzonitrile], the EC50 [1] was under 10 nM, the “Fold selectivity for SST5 vs SST2” value [1] was “+++ (+++=≥500)” and the EC50 [1, 3] was under 10 nM. It also gave an EC50 [2] of 100 to 1000 nM.

With CC1(N)CCN(c2c(-c3cccc(OC(F)(F)F)c3)cncc2-c2nc3cccc(F)c3[nH]2)C1 (centres unmarked) [Compound 2-10, 1-[3-(4-fluoro-1H-1,3-benzodiazol-2-yl)-5-[3-(trifluoromethoxy)phenyl]pyridin-4-yl]-3-methylpyrrolidin-3-amine] the EC50 [1] was under 10 nM, the “Fold selectivity for SST5 vs SST2” value [1] was “+++ (+++=≥500)” and the EC50 [1, 3] was under 10 nM. For the same compound, the EC50 [2] was 100 to 1000 nM.

CC1(N)CCN(c2c(-c3cccc(C#N)c3)cncc2-c2nc3cccc(F)c3[nH]2)C1 (centres unmarked) [Compound 2-13, 3-[4-(3-amino-3-methylpyrrolidin-1-yl)-5-(4-fluoro-1H-1,3-benzodiazol-2-yl)pyridin-3-yl]benzonitrile] was tested, and the EC50 [1] was under 10 nM, the “Fold selectivity for SST5 vs SST2” value [1] was “+++ (+++=≥500)” and the EC50 [1, 3] was under 10 nM. For the same compound, the EC50 [2] was 100 to 1000 nM.

For CC1(N)CCN(c2c(-c3cccc(C(N)=O)c3)cncc2-c2nc3c(F)cccc3[nH]2)C1 (centres unmarked) [Compound 2-18, 3-[4-(3-amino-3-methylpyrrolidin-1-yl)-5-(4-fluoro-1H-1,3-benzodiazol-2-yl)pyridin-3-yl]benzamide], the EC50 [1] was under 10 nM, the “Fold selectivity for SST5 vs SST2” value [1] was “+++ (+++=≥500)” and the EC50 [1, 3] was under 10 nM. The EC50 [2] was over 1000 nM.

In the case of CC1(N)CCN(c2c(-c3cc(F)cc(C(N)=O)c3)cncc2-c2nc3cccc(F)c3[nH]2)C1 (centres unmarked) [Compound 2-20, 3-[4-(3-amino-3-methylpyrrolidin-1-yl)-5-(4-fluoro-1H-1,3-benzodiazol-2-yl)pyridin-3-yl]-5-fluorobenzamide], the EC50 [1] is reported as under 10 nM, the “Fold selectivity for SST5 vs SST2” value [1] is reported as “+++ (+++=≥500)” and the EC50 [1, 3] is reported as under 10 nM. The EC50 [2] was 100 to 1000 nM.

CC1(N)CCN(c2c(-c3cccc(S(C)(=O)=O)c3)cncc2-c2nc3cccc(F)c3[nH]2)C1 (centres unmarked) [Compound 2-21, 1-[3-(4-fluoro-1H-1,3-benzodiazol-2-yl)-5-(3-methanesulfonylphenyl)pyridin-4-yl]-3-methylpyrrolidin-3-amine] was tested, and the EC50 [1] was under 10 nM, the “Fold selectivity for SST5 vs SST2” value [1] was “+++ (+++=≥500)” and the EC50 [1, 3] was under 10 nM. For the same compound, the EC50 [2] was over 1000 nM.

With CC1(N)CCN(c2c(-c3ccc4c(c3)OCC4)cncc2-c2nc3cccc(F)c3[nH]2)C1 (centres unmarked) [Compound 2-22, 1-[3-(2,3-dihydro-1-benzofuran-6-yl)-5-(4-fluoro-1H-1,3-benzodiazol-2-yl)pyridin-4-yl]-3-methylpyrrolidin-3-amine] the EC50 [1] was under 10 nM, the “Fold selectivity for SST5 vs SST2” value [1] was “++ (++=100 to 499)” and the EC50 [1, 3] was under 10 nM. It also gave an EC50 [2] of 100 to 1000 nM.

N#Cc1cc(-c2cncc(-c3nc4cccc(F)c4[nH]3)c2N2CC[C@H](N)C2)ccc1F [Compound 2-23, 5-{4-[(3S)-3-aminopyrrolidin-1-yl]-5-(4-fluoro-1H-1,3-benzodiazol-2-yl)pyridin-3-yl}-2-fluorobenzonitrile] was tested, and the EC50 [1] was under 10 nM, the “Fold selectivity for SST5 vs SST2” value [1] was “+++ (+++=≥500)” and the EC50 [1, 3] was under 10 nM. The EC50 [2] was 100 to 1000 nM.
